# Experimental data: the supplement of paper PMC10307832
# Experiments:
# Test in all cases: relative viability (nuclei count vs DMSO), 5 days (fraction); higher = more cells survive
# Wnt-C59 + Bortezomib = compound: CC1=NC=CC(=C1)C2=CC=C(C=C2)CC(=O)NC3=CC=C(C=C3)C4=CN=CC=C4 [Wnt-C59] + CC(C)C[C@H](NC(=O)[C@H](Cc1ccccc1)NC(=O)c1cnccn1)B(O)O [Bortezomib] (partner 0.002 µM)
# Procedure, shortened: (§1)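 Relative viability was taken as the ratio of nuclei in treated wells to nuclei in vehicle wells. Lung cancer cell lines in 1536-well plates received compounds by pin tool one day after seeding, either one drug alone or a fixed anchor-drug dose plus five library-drug doses (not always all listed) in √10 steps. Nuclei were counted on 4× images after 5 days of treatment, and values are medians of duplicate plates.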
# Wnt-C59 + Foretinib = compound: CC1=NC=CC(=C1)C2=CC=C(C=C2)CC(=O)NC3=CC=C(C=C3)C4=CN=CC=C4 [Wnt-C59] + COc1cc2c(Oc3ccc(NC(=O)C4(C(=O)Nc5ccc(F)cc5)CC4)cc3F)ccnc2cc1OCCCN1CCOCC1 [Foretinib] (partner 0.25 µM)
# Procedure, shortened: as §1
# Lapatinib + Palbociclib = compound: CS(=O)(=O)CCNCc1ccc(-c2ccc3ncnc(Nc4ccc(OCc5cccc(F)c5)c(Cl)c4)c3c2)o1 [Lapatinib] + CC(=O)c1c(C)c2cnc(Nc3ccc(N4CCNCC4)cn3)nc2n(C2CCCC2)c1=O [Palbociclib] (partner 0.5 µM)
# Procedure, shortened: as §1
# Lapatinib + Bortezomib = compound: CS(=O)(=O)CCNCc1ccc(-c2ccc3ncnc(Nc4ccc(OCc5cccc(F)c5)c(Cl)c4)c3c2)o1 [Lapatinib] + CC(C)C[C@H](NC(=O)[C@H](Cc1ccccc1)NC(=O)c1cnccn1)B(O)O [Bortezomib] (partner 0.002 µM)
# Procedure, shortened: as §1
Cell Line,relative viability (Wnt-C59 + Bortezomib; first compound 0.001 µM),relative viability (Wnt-C59 + Bortezomib; first compound 0.01 µM),relative viability (Wnt-C59 + Bortezomib; first compound 0.03162 µM),relative viability (Wnt-C59 + Bortezomib; first compound 0.1 µM),relative viability (Wnt-C59 + Foretinib; first compound 0.001 µM),relative viability (Wnt-C59 + Foretinib; first compound 0.01 µM),relative viability (Wnt-C59 + Foretinib; first compound 0.03162 µM),relative viability (Wnt-C59 + Foretinib; first compound 0.1 µM),relative viability (Lapatinib + Palbociclib; first compound 0.02 µM),relative viability (Lapatinib + Palbociclib; first compound 0.06325 µM),relative viability (Lapatinib + Palbociclib; first compound 0.6325 µM),relative viability (Lapatinib + Palbociclib; first compound 2 µM),relative viability (Lapatinib + Bortezomib; first compound 0.06325 µM),relative viability (Lapatinib + Bortezomib; first compound 0.2 µM),relative viability (Lapatinib + Bortezomib; first compound 0.6325 µM),relative viability (Lapatinib + Bortezomib; first compound 2 µM),relative viability (Lapatinib + Palbociclib; first compound 0.2 µM),relative viability (Lapatinib + Bortezomib; first compound 0.02 µM)
ABC-1,0.266,0.171,0.33,0.306,0.982,1.16,1.07,0.97,0.71,0.487,0.533,0.787,0.362,0.324,0.434,0.333,–,–
SW 1573,1.04,1.1,1.11,1.04,1.13,1.03,0.879,0.784,–,0.384,0.372,0.359,0.892,0.953,1.18,1.01,0.411,1.01
NCI-H1299,1.02,1.06,1.02,1.01,1.15,1.06,1.05,1.11,–,–,–,–,1.04,1.02,1.01,0.996,–,1.05
HCC-827,1.05,1.14,0.97,1.05,1.08,1,1.03,1.04,0.435,0.433,0.257,0.415,1.04,1.1,0.94,1.07,0.461,0.982
201T,1.14,1.08,1.13,1.13,1.19,1.15,1.04,1.15,0.358,0.309,0.338,0.342,1.12,1.08,1.08,1.14,0.339,1.06
HCC-15,1.01,1.02,1.03,0.994,1.09,1.09,1.04,0.992,–,0.68,0.652,0.584,1.06,1.02,1,0.979,0.734,–
NCI-H2347,0.808,1.12,0.922,1.1,0.625,1.13,0.985,1.08,0.385,0.45,0.378,0.386,1.17,0.87,0.796,1,0.456,–
NCI-H596,0.837,1.08,1.12,–,0.885,0.899,0.835,0.898,–,–,–,–,1.04,0.964,1.03,0.776,–,1.17
LXF-289,0.969,0.965,0.99,1.02,0.991,0.98,1.01,0.979,0.615,0.588,0.577,0.526,0.931,0.981,1,0.929,0.588,0.972
NCI-H1755,0.974,0.88,0.929,0.948,0.884,0.895,0.55,0.866,0.475,0.463,0.417,0.48,0.919,0.997,0.984,0.874,0.423,0.807
NCI-H2405,0.978,0.962,0.944,0.95,1.04,0.94,0.938,0.941,–,0.452,0.505,0.518,0.946,1.06,0.963,0.854,–,0.66
NCI-H2170,–,–,–,–,0.942,0.991,1.06,1.01,0.376,0.313,0.277,0.136,–,–,–,–,0.271,–
NCI-H1648,–,–,–,–,–,–,–,–,–,0.222,0.285,0.252,–,–,–,–,0.294,–
NCI-H2342,–,–,–,–,1.06,1.16,1.18,1.07,0.504,0.491,0.553,0.484,–,–,–,–,0.501,–
HARA,1.1,1.01,1.19,1.15,0.823,0.765,1.01,0.841,0.194,0.195,0.233,0.224,0.579,1.05,0.961,0.694,0.202,1.08
H3255,0.78,0.823,0.769,0.912,0.944,0.892,1.12,0.951,0.334,0.291,0.291,0.283,0.735,0.581,0.575,0.395,0.308,0.633
NCI-H1563,0.863,0.917,0.901,0.835,0.911,0.931,0.926,0.898,–,–,–,–,0.741,0.826,0.902,0.834,–,0.952
HCC-44,0.948,0.886,0.903,0.887,–,–,–,–,0.995,1.01,1.05,0.823,0.855,0.901,0.953,0.8,0.976,0.762
EBC-1,0.638,0.617,0.394,0.591,0.112,0.11,0.126,0.106,–,–,–,–,0.561,0.539,0.534,0.455,–,0.542
NCI-H1944,–,–,–,–,1.02,0.701,0.841,0.867,0.304,0.253,0.275,0.225,–,–,–,–,0.265,–
A549,–,–,–,–,1.09,0.969,0.974,0.906,–,–,–,–,–,–,–,–,–,–
NCI-H1623,–,–,–,–,0.886,0.732,0.989,0.893,–,–,–,–,–,–,–,–,–,–
NCI-H358,–,–,–,–,0.759,0.648,1.04,0.678,0.16,0.124,0.132,0.104,–,–,–,–,0.13,–
NCI-H1395,–,–,–,–,0.99,1.01,0.984,1,–,0.621,0.598,0.616,–,–,–,–,0.581,–
